Experimental data taken from patent publication US8859625B2, “Methods to prepare penta-1,4-dien-3-ones and substituted cyclohexanones and derivatives with antitumoral and antiparasitic properties, the compounds and their uses” (Universidade Bandeirante de Sao Paulo-Academia, Paulista …, priority 2006, dated 2014).

Experiments:
[1] = system: promastigote forms of Leishmania (L) amazonensis (isolate LV79); test: Promastigote proliferation in Warren medium, Neubauer chamber count; format: cell-based
Description: (§1) Compounds are solubilized with dimethyl sulfoxide (DMSO) to produce a stock solution from which samples with different concentrations are obtained, by adding the culture medium in sufficient volume as required to attain the first desired concentration with the other concentrations being obtained by serial dilution of this first one, at ratio 2. The cultures are incubated at 22° C. or 34° C. for promastigotes and amastigotes, respectively.
As a positive control for parasite viability evaluation, only culture medium and parasite, without any other addition, were used. As toxicity control for the solvent present in compound composition, parasite forms were incubated with DMSO diluted in culture medium.
To quantify the promastigotes, Neubauer chambers are used and the cultures are quantified every 24 hours throughout the incubation period scheduled for each experiment. The samples are prepared from an initial dilution of 20 μL of the culture into 180 μL of the saline solution formulated (PBS+2% formaldehyde) to obtain a 1/10 dilution. Whenever necessary, serial dilutions may be performed from the first dilution. For all experiments, parasite forms should be incubated with several HB-1 concentrations, its respective controls with DMSO (we should have in mind that the initial HB-1 stock solution was prepared with DMSO and that its toxicity in relation to the parasite forms have to be assessed) and the normal culture, without any component additioned to the medium. Countings are performed as duplicates, by two different people and the final result is expressed as the arithmetic average from the two countings. The same procedure is employed to quantify the amastigote forms.
Promastigote forms of Leishmania (L) amazonensis (isolate LV79, 8th passage for the culture medium, day 7 of culture, stationary phase) are incubated in a proportion of 10^6 promastigotes/mL in Warren medium, 3.0 mL final volume, in the presence of different concentrations of HB-1 and of the respective controls in equivalent volume of DMSO and culture medium, as positive control for proliferation and viability. The effect of HB-1 on the promastigotes of Leishmania amazonensis cultivated in Warren medium is shown in the next Table and FIG. 33.

[2] = system: amastigote-like forms of Leishmania (L) amazonensis; test: Viability of amastigote-like forms from axenic culture by MTT; format: cell-based; details: for O.D. (optical density): amastigote-like forms
Description: as §1
Viability and/or cellular proliferative assays of promastigote and amastigote forms are also performed by the MTT (diphenyl tetrazolium 3-[4,5-dimethylthiazol-2il]2,5-bromide) method as described by Moreira, et al. (Moreira, M. E. C., Del Portillo, H. A., Milder, R. V., Balanco, J. M. F. and Barcinski, M. A. Heat shock induction of apoptosis in promastigotes of the unicellular organism Leishmania (Leishmania) amazonensis, J. Cell Physiol 167, 305-313, 1996), modified.
After incubation of parasitic forms with the compounds, as described above, for predetermined periods of time for each experiment (24, 48, 72 hours, etc.), an 1.0 mL aliquot of cellular suspension is collected from each culture tube or vial and transferred to microcentrifuge tubes, where they are centrifuged at 14.000 rpm for 3 minutes, the culture medium is aspirated and discharged. To the sedimented cells are add 200 μL of PBS. After that, the volume in PBS of the cellular suspensions is splitted into two wells (duplicates of 100 μL each) of a 96 well culture plate. To each duplicate, […] of MTT (5 mg/mL stock solution, […]) are added. After 1 h or 1 h 30 min, at a temperature of 22° C. (promastigotes) or 34° C. (amastigotes), 100 μL of 10% SDS are added to each well to interrupt the reaction, to lyse the cells and to dissolve the formazan crystals, resulting in an homogeneous blue solution appropriate to the absorbance measure by a spectrophotometer for culture microplates (3550 BIORAD model, Richmond, Calif.), at 595 nm as test wavelength and 690 nm as the reference wavelength.
The optical density (O.D.) values correspond to MTT enzymatic reduction by the metabolic active cells. Consequently, the O.D. is directly proportional to the number of viable cells of the cellular suspension. The progressive increase of O.D. indicates cellular proliferation. Results are expressed as arithmetic average of the optical density duplicates.
Considering that the amastigote forms are those that multiply inside a vertebrate host and, consequently, are responsible for the disease, it is indispensable to evaluate the viability of these forms when incubated with HB-1.
This evaluation is performed as previously described and by applying the amastigote forms obtained from an axenic culture.

SMILES: COc1cc(C=CC(=O)C=Cc2ccc(O)c(OC)c2)ccc1O [HB-1, 1,5-Bis-(4-hydroxy-3-methoxy-phenyl)-penta-1,4-dien-3-one]
- N^o. of promastigotes/mL (×10^6) ([1]; HB-1 3.12 μg/mL, 24 hours, Warren medium): 3.0 ×10^6 promastigotes/mL
- N^o. of promastigotes/mL (×10^6) ([1]; HB-1 3.12 μg/mL, 48 hours, Warren medium): 5.95 ×10^6 promastigotes/mL
- N^o. of promastigotes/mL (×10^6) ([1]; HB-1 3.12 μg/mL, 72 hours, Warren medium): 10 ×10^6 promastigotes/mL
- N^o. of promastigotes/mL (×10^6) ([1]; HB-1 3.12 μg/mL, 96 hours, Warren medium): 11 ×10^6 promastigotes/mL
- N^o. of promastigotes/mL (×10^6) ([1]; HB-1 3.12 μg/mL, 120 hours, Warren medium): 17 ×10^6 promastigotes/mL
- N^o. of promastigotes/mL (×10^6) ([1]; HB-1 6.25 μg/mL, 24 hours, Warren medium): 2.5 ×10^6 promastigotes/mL
- N^o. of promastigotes/mL (×10^6) ([1]; HB-1 6.25 μg/mL, 48 hours, Warren medium): 3.95 ×10^6 promastigotes/mL
- N^o. of promastigotes/mL (×10^6) ([1]; HB-1 6.25 μg/mL, 72 hours, Warren medium): 7.15 ×10^6 promastigotes/mL
- N^o. of promastigotes/mL (×10^6) ([1]; HB-1 6.25 μg/mL, 96 hours, Warren medium): 13.0 ×10^6 promastigotes/mL
- N^o. of promastigotes/mL (×10^6) ([1]; HB-1 6.25 μg/mL, 120 hours, Warren medium): 18.6 ×10^6 promastigotes/mL
- effect on promastigotes in words ([1]; HB-1 12.5 μg/mL to 3.12 μg/mL, Warren medium): sub-lethal
- N^o. of promastigotes/mL (×10^6) ([1]; HB-1 12.5 μg/mL, 24 hours, Warren medium): 2.55 ×10^6 promastigotes/mL
- N^o. of promastigotes/mL (×10^6) ([1]; HB-1 12.5 μg/mL, 48 hours, Warren medium): 2.25 ×10^6 promastigotes/mL
- N^o. of promastigotes/mL (×10^6) ([1]; HB-1 12.5 μg/mL, 72 hours, Warren medium): 3.9 ×10^6 promastigotes/mL
- N^o. of promastigotes/mL (×10^6) ([1]; HB-1 12.5 μg/mL, 96 hours, Warren medium): 5.9 ×10^6 promastigotes/mL
- N^o. of promastigotes/mL (×10^6) ([1]; HB-1 12.5 μg/mL, 120 hours, Warren medium): 18.3 ×10^6 promastigotes/mL
- N^o. of promastigotes/mL (×10^6) ([1]; HB-1 25 μg/mL, 24 hours, Warren medium): 3.25 ×10^6 promastigotes/mL
- N^o. of promastigotes/mL (×10^6) ([1]; HB-1 25 μg/mL, 48 hours, Warren medium): 1.8 ×10^6 promastigotes/mL
- N^o. of promastigotes/mL (×10^6) ([1]; HB-1 25 μg/mL, 72 hours, Warren medium): 0.4 ×10^6 promastigotes/mL
- N^o. of promastigotes/mL (×10^6) ([1]; HB-1 25 μg/mL, 96 hours, Warren medium): 0.1 ×10^6 promastigotes/mL
- N^o. of promastigotes/mL (×10^6) ([1]; HB-1 25 μg/mL, 120 hours, Warren medium): 0 ×10^6 promastigotes/mL
- time of culture to 100% mortality ([1]; HB-1 25 μg/mL, Warren medium): 120 h
- N^o. of promastigotes/mL (×10^6) ([1]; HB-1 50 μg/mL, 24 hours, Warren medium): 2.1 ×10^6 promastigotes/mL
- N^o. of promastigotes/mL (×10^6) ([1]; HB-1 50 μg/mL, 48 hours, Warren medium): 0.4 ×10^6 promastigotes/mL
- N^o. of promastigotes/mL (×10^6) ([1]; HB-1 50 μg/mL, 72 hours, Warren medium): 0.1 ×10^6 promastigotes/mL
- N^o. of promastigotes/mL (×10^6) ([1]; HB-1 50 μg/mL, 96 hours, Warren medium): 0 ×10^6 promastigotes/mL
- N^o. of promastigotes/mL (×10^6) ([1]; HB-1 50 μg/mL, 120 hours, Warren medium): 0 ×10^6 promastigotes/mL
- time of culture to 100% mortality ([1]; HB-1 50 μg/mL, Warren medium): 96 h
- N^o. of promastigotes/mL (×10^6) ([1]; HB-1 100 μg/mL, 24 hours, Warren medium): 1.15 ×10^6 promastigotes/mL
- N^o. of promastigotes/mL (×10^6) ([1]; HB-1 100 μg/mL, 48 hours, Warren medium): 0.2 ×10^6 promastigotes/mL
- N^o. of promastigotes/mL (×10^6) ([1]; HB-1 100 μg/mL, 72 hours, Warren medium): 0 ×10^6 promastigotes/mL
- N^o. of promastigotes/mL (×10^6) ([1]; HB-1 100 μg/mL, 96 hours, Warren medium): 0 ×10^6 promastigotes/mL
- N^o. of promastigotes/mL (×10^6) ([1]; HB-1 100 μg/mL, 120 hours, Warren medium): 0 ×10^6 promastigotes/mL
- time of culture to 100% mortality ([1]; HB-1 100 μg/mL, Warren medium): 72 h
- inhibition at 25 µg/mL ([1]; Leishmania, 72 h, read-out: inhibition of parasite proliferation): 81%
- inhibition at 50 µg/mL ([1]; Leishmania, HB-1 50 μg/mL, after 72 hours, Warren medium, read-out: inhibition of parasite proliferation): 95.8%
- inhibition at 100 µg/mL ([1]; Leishmania, HB-1 100 μg/mL, after 72 hours, Warren medium, read-out: inhibition of parasite proliferation): 100%
- inhibition of cellular activity of amastigotes ([2]; 10 μg/mL and 20 μg/mL, first 24 hours): 100%
- O.D. (optical density) ([2]; HB-1 5 μg/mL, 24 hours): 0.16
- O.D. (optical density) ([2]; HB-1 5 μg/mL, 48 hours): 0.012
- O.D. (optical density) ([2]; HB-1 5 μg/mL, 72 hours): 0.012
- O.D. (optical density) ([2]; HB-1 10 μg/mL, 24 hours): 0.010
- O.D. (optical density) ([2]; HB-1 10 μg/mL, 48 hours): 0.014
- O.D. (optical density) ([2]; HB-1 10 μg/mL, 72 hours): 0.014
- O.D. (optical density) ([2]; HB-1 20 μg/mL, 24 hours): 0.009
- O.D. (optical density) ([2]; HB-1 20 μg/mL, 48 hours): 0.012
- O.D. (optical density) ([2]; HB-1 20 μg/mL, 72 hours): 0.016
- parasites nonviable ([2]; all assayed concentrations, first 48 hours): 100%
